One compound from patent publication US20200024278A1, “COMPOSITION COMPRISING ANTIBIOTIC COMPOUND AND AN HETEROCYCLIC COMPOUND AND THEIR USE IN PREVENTING OR TREATING BACTERIAL INFECTIONS” (MUTABILIS, priority 2016, published 2020) can be followed below.

The subject of one test is ABA 107292. Description: MIC, broth microdilution (CLSI), substance alone or ATB combined with compound at 4 or 8 μg/mL. The class given is cell-based, A. baumannii. The following applies: substance alone. Summed up:
(§1)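 CLSI broth microdilution in cation-adjusted Mueller-Hinton broth, 5·10^5 CFU/mL log-phase inoculum, 16-20 h at 35 °C in ambient air. Fosfomycin assays supplemented with 25 μg/ml glucose-6-phosphate.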

The test system of another test is ABA 19606. Described as above. The class given is cell-based, A. baumannii. The following applies: substance alone. Summed up:
as §1

The subject of the next test is ABA UFR151. The description is as above. The test is classed as cell-based, A. baumannii. The following applies: substance alone. Summed up:
as §1

A further test relates to ABA UFR152. Described as above. The test is classed as cell-based, A. baumannii. The note with it: substance alone. The method, boiled down: as §1
A further test relates to ABA UFR153. The description is as above. The class given is cell-based, A. baumannii. The following applies: substance alone. The method, boiled down:
as §1

In another test the test system is ABA UFR156. The test is described as above. The test is classed as cell-based, A. baumannii. The following applies: substance alone. Summed up:
as §1

A further test deals with ABA UFR157. Described as above. The class given is cell-based, A. baumannii. The following applies: substance alone. The method, boiled down:
as §1

The next test relates to ABA UFR158. The description is as above. The test is classed as cell-based, A. baumannii. The following applies: substance alone. Summed up:
as §1

The subject of a further test is ABA UFR159. The description is as above. The note with it: substance alone. The class given is cell-based, A. baumannii. Summed up: as §1
The next test concerns ABA UFR160. Described as above. The test is classed as cell-based, A. baumannii. The following applies: substance alone. Summed up: as §1
In a further test the test system is ABA UFR161. The test is described as above. The following applies: substance alone. The test is classed as cell-based, A. baumannii. Summed up:
as §1

The next test has as its system KPN UFR68. Description: Fractional Inhibitory Concentration Index, checkerboard assay. The test is classed as cell-based, K. pneumoniae. The method, boiled down:
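Two-agent checkerboards of 2-fold dilutions in ca-MHB were inoculated at 5.10^5 CFU/mL and incubated 18 h at 35 °C in air, in duplicate; fosfomycin wells also held 25 μg/ml glucose-6-phosphate. FICI calculated as the sum of combination/alone MIC ratios for each drug.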

Consider `O=C(O)C(F)(F)F.O=C1N2C[C@H](c3scnc3[C@H]2c2ncc[nH]2)N1OS(=O)(=O)[O-].[Na+]` (relative stereo) [Example 6, sodium and 2,2,2-trifluoroacetate [trans-7-(1H-imidazol-3-ium--2-yl)-9-oxo-3-thia-5,8,10-triaza-tricyclo[6.2.1.0^2,6]undeca-2(6),4-dien-10-yl]sulfate], for which the MIC is greater than 32 µg/mL with ABA 107292; 16 µg/mL in the test on ABA 19606; 32 µg/mL with ABA UFR151; 32 µg/mL in the test on ABA UFR152; 16 µg/mL with ABA UFR153; 16 µg/mL with ABA UFR156. The MIC is 8 µg/mL with ABA UFR157; 16 µg/mL in the test with ABA UFR158; greater than 32 µg/mL in the test on ABA UFR159; 16 µg/mL in the test with ABA UFR160; 32 µg/mL with ABA UFR161. Besides, the FIC index min was 1.0 in the test with KPN UFR68 (compound +ATM); 1.0 with KPN UFR68 (compound +FEP); 0.28 in the test with KPN UFR68 (compound +FOS); 0.50 in the test with KPN UFR68 (compound +MEM); no more than 0.5 with KPN UFR68 (compound +PIP).
